In patent US9743666B2, “Herbicidal composition comprising flazasulfuron and an inhibitor of protoporphyrinogen oxidase” (ISHIHARA SANGYO KAISHA, LTD., priority 2011, dated 2017):
Like-named read-outs stand apart in the source and are kept apart here.

Key:
[1] = test system: bermudagrass (Cynodon dactylon (L.) Pers.); assay: Test Example 10: pot test, foliar treatment of bermudagrass, 2.2 to 2.5 leaf-stage; type: in vivo; conditions: read-out: Growth inhibition rate (%) of bermudagrass, Measured value
[2] = test system: persian speedwell (Veronica persica Poir.); assay: Test Example 12: pot test, foliar treatment of persian speedwell, 4.0 to 4.3 leaf-stage; type: in vivo; conditions: read-out: Growth inhibition rate (%) of persian speedwell, Measured value
[3] = test system: common lambsquarters (Chenopodium album L.); assay: Test Example 4: pot test, foliar treatment of common lambsquarters; conditions: read-out: Growth inhibition rate (%) of lambsquarters, Measured value
[4] = test system: persian speedwell (Veronica persica Poir.); assay: Test Example 1: pot test, foliar treatment of persian speedwell; type: in vivo; conditions: read-out: Growth inhibition rate (%) of persian speedwell, Measured value
[5] = test system: black nightshade (Solanum nigrum L.); assay: Test Example 2: pot test, foliar treatment of black nightshade; type: in vivo
[6] = test system: sticky chickweed (Cerastium glomeratum Thuill.); assay: Test Example 3: pot test, foliar treatment of sticky chickweed; type: in vivo; conditions: read-out: Growth inhibition rate (%) of sticky chickweed, Measured value
[7] = test system: sunn-hemp (Crotalaria juncea L.); assay: Test Example 7: pot test, soil treatment of sunn-hemp; type: in vivo
[8] = test system: bermudagrass (Cynodon dactylon (L.) Pers.); assay: Test Example 11: pot test, foliar treatment of bermudagrass, 3.8 to 4.3 leaf-stage; type: in vivo; conditions: read-out: Growth inhibition rate (%) of bermudagrass, Measured value
corn (Zea mays L.) = assay: Test Example 18: pot test, soil treatment of corn; type: in vivo; conditions: 14th day after treatment, read-out: Growth inhibition rate (%) of corn, Measured value
[9] = test system: ivy-leaved morningglory (Ipomoea hederacea Jacq.); assay: Test Example 19: pot test, soil treatment of ivy-leaved morningglory; type: in vivo; conditions: 14th day after treatment, read-out: Growth inhibition rate (%) of ivy-leaved morningglory, Measured value
[10] = test system: velvetleaf (Abutilon theophrasti Medic.); assay: Test Example 8: pot test, soil treatment of velvetleaf; type: in vivo; conditions: 28th day after treatment, read-out: Growth inhibition rate (%) of velvetleaf, Measured value
[11] = test system: sunn-hemp (Crotalaria juncea L.); assay: Test Example 15: pot test, soil treatment of sunn-hemp; type: in vivo; conditions: 28th day after treatment
[12] = test system: wild oat (Avena fatua L.); assay: Test Example 5: pot test, soil treatment of wild oat, 13th day; type: in vivo; conditions: soil treatment one day after sowing, 13th day after treatment; for inhibition at 25 g/ha / inhibition at 50 g/ha: Avena fatua, 24 h, read-out: Growth inhibition rate (%) of wild oat, Measured value
[13] = test system: wild oat (Avena fatua L.); assay: Test Example 16: pot test, soil treatment of wild oat, 28th day; type: in vivo
[14] = test system: shattercane (Sorghum bicolor (L.) Moench); assay: Test Example 20: pot test, soil treatment of shattercane; type: in vivo; conditions: 14th day after treatment, read-out: Growth inhibition rate (%) of shattercane, Measured value
[15] = test system: rostrate sesbania (Sesbania rostrata Bremek. & Oberm.); assay: Test Example 6: pot test, soil treatment of rostrate sesbania, 28th day; type: in vivo; conditions: 28th day after treatment
[16] = test system: black nightshade (Solanum nigrum L.); assay: Test Example 9: pot test, soil treatment of black nightshade; type: in vivo; conditions: 28th day after treatment, read-out: Growth inhibition rate (%) of black nightshade, Measured value
[17] = test system: rostrate sesbania (Sesbania rostrata Bremek. & Oberm.); assay: Test Example 14: pot test, soil treatment of rostrate sesbania, 14th day; type: in vivo; conditions: 14th day after treatment
[18] = test system: wild oat (Avena fatua L.); assay: Test Example 17: pot test, soil treatment of wild oat, 14th day; type: in vivo; conditions: 14th day after treatment, read-out: Growth inhibition rate (%) of wild oat, Measured value
[19] = test system: japanese millet (Echinochloa esculenta (A. Braun) H. Scholz.); assay: Test Example 13: pot test, soil treatment of japanese millet; type: in vivo
[20] = Crotalaria juncea, soil, read-out: Growth inhibition rate (%) of sunn-hemp, Measured value
[21] = dose 50 g/ha, 2.2 to 2.5 leaf-stage, 28th day after treatment

## CCOC(=O)C(Cl)Cc1cc(-n2nc(C)n(C(F)F)c2=O)c(F)cc1Cl (stereo not drawn) [Carfentrazone-ethyl, carfentrazone-ethyl]
[1]
  inhibition at 20 g/ha: 0%
  inhibition at 50 g/ha: 0%
[2]
  inhibition at 25 g/ha: 65%
[3]
  inhibition at 27.4 g/ha: 92%

## CCOC(=O)COc1cc(-c2nn(C)c(OC(F)F)c2Cl)c(F)cc1Cl [Pyraflufen-ethyl, pyraflufen-ethyl]
[4]
  inhibition at 10 g/ha: 43%
[5]; Solanum nigrum, read-out: Growth inhibition rate (%) of black nightshade, Measured value
  inhibition at 2.5 g/ha: 88%
[6]
  inhibition at 10 g/ha: 58%
[7]; [20]
  inhibition at 10 g/ha: 20%
  inhibition at 50 g/ha: 45%
[8]
  inhibition at 40 g/ha: 0%
[2]
  inhibition at 80 g/ha: 80%

## C=CCOC(=O)C(C)(C)OC(=O)c1cc(-n2c(=O)cc(C(F)(F)F)n(C)c2=O)ccc1Cl [Butafenacil, butafenacil]
Corn (Zea mays L.); dose 100 g/ha
  inhibition at 100 g/ha: 20%
[9]; dose 10 g/ha
  inhibition at 10 g/ha: 0%

## Cc1nn(-c2cc(NS(C)(=O)=O)c(Cl)cc2Cl)c(=O)n1C(F)F [Sulfentrazone, sulfentrazone]
[10]; dose 25 g/ha
  inhibition at 25 g/ha: 20%
[1]; [21]
  inhibition at 50 g/ha: 30%
[11]; Crotalaria juncea, dose 500 g/ha, read-out: Growth inhibition rate (%) of sunn-hemp, Measured value
  inhibition at 500 g/ha: 30%

## CC(C)N(C)S(=O)(=O)NC(=O)c1cc(-n2c(=O)cc(C(F)(F)F)n(C)c2=O)c(F)cc1Cl [Saflufenacil, saflufenacil]
[12]
  inhibition at 25 g/ha: 15%
[12]; dose 50 g/ha
  inhibition at 50 g/ha: 5%
[10]; dose 5 g/ha
  inhibition at 5 g/ha: 0%
[10]; dose 10 g/ha
  inhibition at 10 g/ha: 65%
[13]; Avena fatua, dose 50 g/ha, soil treatment, 28th day after treatment, read-out: Growth inhibition rate (%) of wild oat, Measured value
  inhibition at 50 g/ha: 0%
[14]; dose 100 g/ha
  inhibition at 100 g/ha: 20%

## C#CCN1C(=O)COc2cc(F)c(N3C(=O)C4=C(CCCC4)C3=O)cc21 [Flumioxazin, flumioxazin]
[15]; Sesbania, dose 250 g/ha, read-out: Growth inhibition rate (%) of rostrate sesbania, Measured value
  inhibition at 250 g/ha: 70%
[16]; dose 2.5 g/ha
  inhibition at 2.5 g/ha: 0%
[1]; dose 5 g/ha, 2.2 to 2.5 leaf-stage, 28th day after treatment
  inhibition at 5 g/ha: 20%
[17]; Sesbania, dose 200 g/ha, read-out: Growth inhibition rate (%) of rostrate sesbania, Measured value
  inhibition at 200 g/ha: 75%
[11]; Crotalaria juncea, dose 100 g/ha, read-out: Growth inhibition rate (%) of sunn-hemp, Measured value
  inhibition at 100 g/ha: 0%
[13]; Avena fatua, dose 250 g/ha, soil treatment, 28th day after treatment, read-out: Growth inhibition rate (%) of wild oat, Measured value
  inhibition at 250 g/ha: 90%
[18]; dose 500 g/ha
  inhibition at 500 g/ha: 75%

## oxadiargyl
[12]; dose 50 g/ha
  Growth inhibition rate (%) of wild oat, Measured value: 5%
[12]; dose 800 g/ha
  Growth inhibition rate (%) of wild oat, Measured value: 20%
[15]; dose 400 g/ha
  Growth inhibition rate (%) of rostrate sesbania, Measured value: 20%
[7]; dose 400 g/ha, soil treatment, 28th day after treatment
  Growth inhibition rate (%) of sunn-hemp, Measured value: 40%

## C#CCN(C)c1c(C#N)cnn1-c1nn2c(c1Cl)CCCC2 [Pyraclonil, pyraclonil]
[19]; dose 100 g/ha, soil treatment, 14th day after treatment
  Growth inhibition rate (%) of japanese millet, Measured value: 30%
[13]; dose 250 g/ha, soil treatment, 28th day after treatment
  Growth inhibition rate (%) of wild oat, Measured value: 40%

## COC(=O)CSc1cc(/N=c2\sc(=O)n3n2CCCC3)c(F)cc1Cl [Fluthiacet-methyl, fluthiacet-methyl]
[17]; Sesbania, dose 5 g/ha, read-out: Growth inhibition rate (%) of rostrate sesbania, Measured value
  inhibition at 5 g/ha: 0%
[11]; Crotalaria juncea, dose 50 g/ha, read-out: Growth inhibition rate (%) of sunn-hemp, Measured value
  inhibition at 50 g/ha: 0%

## CCOC(=O)COc1cc(-n2ncc(C(F)(F)F)c(C)c2=O)c(F)cc1Cl [Flufenpyr-ethyl, flufenpyr-ethyl]
[17]; dose 5 g/ha
  Growth inhibition rate (%) of rostrate sesbania, Measured value: 0%
[11]; dose 50 g/ha
  Growth inhibition rate (%) of sunn-hemp, Measured value: 0%

## CC(C)=C1OC(=O)N(c2cc(OC3CCCC3)c(Cl)cc2F)C1=O [Pentoxazone, pentoxazone]
[19]; Echinochloa esculenta, soil, read-out: Growth inhibition rate (%) of japanese millet, Measured value
  inhibition at 100 g/ha: 0%
[13]; Avena fatua, soil, read-out: Growth inhibition rate (%) of wild oat, Measured value
  inhibition at 250 g/ha: 0%

## COc1cc(OC)nc(NC(=O)NS(=O)(=O)c2ncccc2C(F)(F)F)n1 [Flazasulfuron, 1-(4,6-dimethoxypyrimidin-2-yl)-3-(3-trifluoromethyl-2-pyridylsulfonyl)urea]
[4]; dose 25 g/ha, 7 to 8 leaf-stage, 21st day after treatment
  inhibition at 25 g/ha: 10%
[5]; Solanum nigrum, dose 50 g/ha, 3.2 to 3.5 leaf-stage, 21st day after treatment, read-out: Growth inhibition rate (%) of black nightshade, Measured value
  inhibition at 50 g/ha: 74%
[5]; flazasulfuron alone
  dose required to completely suppress growth of black nightshade: ≥ 50 g/ha
[6]; dose 6.3 g/ha, 3.3 to 4.0 leaf-stage, 21st day after treatment
  inhibition at 6.3 g/ha: 92%
[12]
  inhibition at 25 g/ha: 40%
[12]; dose 50 g/ha
  inhibition at 50 g/ha: 70%
[15]; Sesbania, dose 12.5 g/ha, read-out: Growth inhibition rate (%) of rostrate sesbania, Measured value
  inhibition at 12.5 g/ha: 25%
[7]; Crotalaria juncea, dose 50 g/ha, soil treatment, 28th day after treatment, read-out: Growth inhibition rate (%) of sunn-hemp, Measured value
  inhibition at 50 g/ha: 55%
[10]; dose 50 g/ha
  inhibition at 50 g/ha: 88%
[10]; dose 100 g/ha
  inhibition at 100 g/ha: 88%
[16]; dose 50 g/ha
  inhibition at 50 g/ha: 85%
[1]; [21]
  inhibition at 50 g/ha: 75%
[1]; dose 100 g/ha, 2.2 to 2.5 leaf-stage, 28th day after treatment
  inhibition at 100 g/ha: 75%
[8]; dose 12.5 g/ha, 3.8 to 4.3 leaf-stage, 28th day after treatment
  inhibition at 12.5 g/ha: 15%
[2]; dose 25 g/ha, 4.0 to 4.3 leaf-stage, 28th day after treatment
  inhibition at 25 g/ha: 0%
[19]; Echinochloa esculenta, dose 50 g/ha, soil treatment, 14th day after treatment, read-out: Growth inhibition rate (%) of japanese millet, Measured value
  inhibition at 50 g/ha: 80%
[17]; Sesbania, dose 50 g/ha, read-out: Growth inhibition rate (%) of rostrate sesbania, Measured value
  inhibition at 50 g/ha: 50%
[11]; Crotalaria juncea, dose 25 g/ha, read-out: Growth inhibition rate (%) of sunn-hemp, Measured value
  inhibition at 25 g/ha: 0%
[13]; Avena fatua, dose 12.5 g/ha, soil treatment, 28th day after treatment, read-out: Growth inhibition rate (%) of wild oat, Measured value
  inhibition at 12.5 g/ha: 20%
[13]; Avena fatua, dose 25 g/ha, soil treatment, 28th day after treatment, read-out: Growth inhibition rate (%) of wild oat, Measured value
  inhibition at 25 g/ha: 75%
[18]; dose 25 g/ha
  inhibition at 25 g/ha: 30%
Corn (Zea mays L.); dose 12.5 g/ha
  inhibition at 12.5 g/ha: 70%
[9]; dose 50 g/ha
  inhibition at 50 g/ha: 60%
[14]; dose 12.5 g/ha
  inhibition at 12.5 g/ha: 0%
[3]
  inhibition at 1.6 g/ha: 3%
